The record followed here is ChEMBL document CHEMBL4651402, “Screening of ~5500 FDA-approved drugs and clinical candidates for anti-SARS-CoV-2 activity” (2021).

The test system of the test is SARS-CoV-2. As to the kind of experiment: microbe, parasite or virus in culture. The following applies: Severe acute respiratory syndrome coronavirus 2, Vero C1008, 48 h; for IC50: read-out: pIC50 (converted).

pIC50: −log10 of the molar value.

As usually defined, the pIC50 is −log10 of the IC50, conventionally taken in molar units. Low readings indicate a large IC50, high ones a small IC50.

For `CC(C)(C)NCC(O)COc1cccc2c1C(=O)OC2` (stereo not given) [AFUROLOL], the pIC50 was < 4.70 and the IC50 is > 20 µM.
Taken in the same sequence, the figures for `O=[N+]([O-])c1ccc(O)c2ncccc12` [NITROXOLINE] were < 4.70 and > 20 µM.
The like results for `Cc1ccc(C(=O)c2cc(O)c(O)c([N+](=O)[O-])c2)cc1` [TOLCAPONE] were, in that order, < 4.70 and > 20 µM.
Taken in the same sequence, the figures for `O=S(=O)(O)c1cc(O)ccc1O` [CALCIUM DOBESILATE] were < 4.70 and > 20 µM.
Take `Cn1c(=O)c2[nH]c(Br)nc2n(C)c1=O` [PAMABROM]: the pIC50 is < 4.70 and the IC50 is > 20 µM.
Taken in the same sequence, the figures for `CCOc1cc2cc(C(=O)O)sc2cc1OCC` [TIBENELAST] were < 4.70 and > 20 µM.
The like results for `NC(=O)c1ccccc1O` [SALICYLAMIDE] were, in that order, < 4.70 and > 20 µM.
Taken in the same sequence, the figures for `C=CC(N)CCC(=O)O` (stereo not given) [VIGABATRIN] were < 4.70 and > 20 µM.
On to `O=C(O)CC(=O)C(=O)O` [OXALOACETATE], for which the pIC50 was < 4.70 and the IC50 is > 20 µM.
The like results for `O=C(c1ccc(F)cc1)C1CCN(CCn2c(=S)[nH]c3ccccc3c2=O)CC1` [ALTANSERIN] were, in that order, < 4.70 and > 20 µM.
Taken in the same sequence, the figures for `CCCC(C)(COC(N)=O)COC(N)=O` [MEPROBAMATE] were < 4.70 and > 20 µM.
The like results for `Cc1ccc2c(-c3ccccc3)nc(=O)n(C(C)C)c2c1` [PROQUAZONE] were, in that order, < 4.70 and > 20 µM.
Turning to `CCN(CC)C(=O)N1CCN(C)CC1` [DIETHYLCARBAMAZINE], the pIC50 was < 4.70 and the IC50 is > 20 µM.
Taken in the same sequence, the figures for `OC[C@H]1O[C@@H]2O[C@H]3[C@H](O)[C@@H](O)[C@@H](O[C@H]4[C@H](O)[C@@H](O)[C@@H](O[C@H]5[C@H](O)[C@@H](O)[C@@H](O[C@H]6[C@H](O)[C@@H](O)[C@@H](O[C@H]7[C@H](O)[C@@H](O)[C@@H](O[C@H]8[C@H](O)[C@@H](O)[C@@H](O[C@H]1[C@H](O)[C@H]2O)O[C@@H]8CO)O[C@@H]7CO)O[C@@H]6CO)O[C@@H]5CO)O[C@@H]4CO)O[C@@H]3CO` [BETADEX] were < 4.70 and > 20 µM.
Regarding `CC[C@H](O)C(C[C@@H](C)N(C)C)(c1ccccc1)c1ccccc1` [BETAMETHADOL], the pIC50 is < 4.70 and the IC50 was > 20 µM.
The like results for `CN(C)CCC=C1c2ccccc2C(C)(C)c2ccccc21` were, in that order, < 4.70 and > 20 µM.
The like results for `CCOc1ccc(NC(C)=O)cc1` [PHENACETIN] were, in that order, < 4.70 and > 20 µM.
The like results for `CCNC(=O)[C@H]1O[C@@H](n2cnc3c(N)nc(C#CC[C@H]4CC[C@H](C(=O)OC)CC4)nc32)[C@H](O)[C@@H]1O` [APADENOSON] were, in that order, < 4.30 and > 50.1 µM.
On to `CN(C)CCN(Cc1cccs1)c1ccccn1`, for which the pIC50 was < 4.70 and the IC50 was > 20 µM.
Taken in the same sequence, the figures for `O=C(O)CCCCCCC[C@@H](O)[C@@H](O)CCCCCCO` were < 4.70 and > 20 µM.
The like results for `O=C(NCC12CC3CC(CC(C3)C1)C2)c1cc(CCCNCCCO)ccc1Cl` [AZD9056] were, in that order, < 4.70 and > 20 µM.
Taken in the same sequence, the figures for `c1ccc(N2CCN(Cc3nc4ccccc4[nH]3)CC2)nc1` [ABT-724] were < 4.70 and > 20 µM.
For `[O-][S+](c1cc(Cl)cc(Cl)c1O)c1cc(Cl)cc(Cl)c1O` [BITHIONOLOXIDE], the negative logarithm of the IC50 (pIC50) is < 4.70 and the IC50 was > 20 µM.
For `c1cc2c(cc1C1CCCCC1)c1c3n2CCNC3CCC1` (stereo not given), the pIC50 was < 4.70 and the IC50 is > 20 µM.
The like results for `OCc1ccc(Cl)cc1Cl` [DICHLOROBENZYL ALCOHOL] were, in that order, < 4.70 and > 20 µM.
Taken in the same sequence, the figures for `CCn1cc(C(=O)O)c(=O)c2cc3c(cc21)OCO3` [OXOLINIC ACID] were < 4.70 and > 20 µM.
Taken in the same sequence, the figures for `CN[C@@H]1[C@H](O[C@H]2[C@H](O[C@H]3[C@H](O)[C@@H](O)[C@H](N=C(N)N)[C@@H](O)[C@@H]3N=C(N)N)O[C@@H](C)[C@]2(O)C=O)O[C@@H](CO)[C@H](O)[C@H]1O` [STREPTOMYCIN] were < 4.70 and > 20 µM.
As for `CCCC(=O)O[C@H]1CN2CC[C@H](O)[C@@H]2[C@@H](O)[C@@H]1O` [CELGOSIVIR], the pIC50 was < 4.70 and the IC50 is > 20 µM.
Taken in the same sequence, the figures for `Oc1ccc(C2CNCCc3c2cc(O)c(O)c3Cl)cc1` (stereo not given) [FENOLDOPAM] were < 4.70 and > 20 µM.
The like results for `O=C(O)c1cc(-c2ccccc2)nc2ccccc12` [CINCHOPHEN] were, in that order, < 4.70 and > 20 µM.
Taken in the same sequence, the figures for `CC[C@H]1CN2CCc3cc(OC)c(OC)cc3[C@@H]2C[C@@H]1C[C@H]1NCCc2cc(O)c(OC)cc21` [CEPHAELINE] were < 4.70 and > 20 µM.
As for `COc1ccc(-c2cc(=O)c3cc(OC)ccc3o2)cc1` [6,4'-DIMETHOXYFLAVONE], the pIC50 is < 4.70 and the IC50 was > 20 µM.
The like results for `CCN(CC)C(=O)c1cccc(C)c1` [DIETHYLTOLUAMIDE] were, in that order, < 4.70 and > 20 µM.
The like results for `O=c1oc2ccccc2c(O)c1Cc1c(O)c2ccccc2oc1=O` [DICUMAROL] were, in that order, < 4.70 and > 20 µM.
The like results for `Clc1ccccc1C(c1ccccc1)(c1ccccc1)n1ccnc1` [CLOTRIMAZOLE] were, in that order, < 4.70 and > 20 µM.
As for `NCCCC[C@H](N[C@@H](CCc1ccccc1)C(=O)O)C(=O)N1CCC[C@H]1C(=O)O` [LISINOPRIL ANHYDROUS], the pIC50 is < 4.70 and the IC50 was > 20 µM.
Consider `COc1ccc(C(=O)NCc2ccc(OCCN(C)C)cc2)cc1OC` [ITOPRIDE], for which the pIC50 was < 4.70 and the IC50 is > 20 µM.
The like results for `Oc1ccc2ccccc2c1` [BETANAPHTHOL] were, in that order, < 4.70 and > 20 µM.
Taken in the same sequence, the figures for `CC(CN(C)C)C(C)(O)Cc1ccc(Cl)cc1` (stereo not given) [CLOBUTINOL] were < 4.70 and > 20 µM.
For `CC1(C)O[C@@H]2C[C@H]3[C@@H]4CCC5=CC(=O)CC[C@]5(C)[C@@]4(F)[C@@H](O)C[C@]3(C)[C@]2(C(=O)CCl)O1` [HALCINONIDE], the pIC50 is < 4.70 and the IC50 was > 20 µM.
As for `Cc1cn(C2CC(N=[N+]=[N-])C(CO)O2)c(=O)nc1N` (stereo not given), the pIC50 is < 4.70 and the IC50 is > 20 µM.
The like results for `CSc1ccc2c(c1)C(N1CCN(C)CC1)Cc1ccccc1S2` (stereo not given) [METITEPINE] were, in that order, < 4.70 and > 20 µM.
The like results for `CC(C)(O)C(=O)Nc1ccc([N+](=O)[O-])c(C(F)(F)F)c1` [HYDROXYFLUTAMIDE] were, in that order, < 4.70 and > 20 µM.
The like results for `CC(=O)OC1CCC2(C)C(=CCC3C2CCC2(C)C(O)CCC32)C1` (stereo not given) were, in that order, < 4.70 and > 20 µM.
`COc1nc(C)nc(Cl)c1NC1=NCCN1` [MOXONIDINE]: the pIC50 is < 4.70 and the IC50 is > 20 µM.
